# Measurements: US8901111B2, “Aryl-substituted heterocyclic urea modulators of fatty acid amide hydrolase” (Janssen Pharmaceutica NV, priority 2009, dated 2014)
# Columns and labels:
# rat FAAH = target: T1, rat FAAH (Rattus norvegicus, UniProt P97612); assay: Assay Method 2: FAAH assay, 3H-anandamide hydrolysis in homogenate of cells transfected with rat FAAH; assay type: biochemical; settings: cell homogenate, 3H-AEA 80 nM, 1 h at rt, average of results
# T1 construct: expressed in transfected cells; crude homogenate
# T1 sequence (P97612 1-579): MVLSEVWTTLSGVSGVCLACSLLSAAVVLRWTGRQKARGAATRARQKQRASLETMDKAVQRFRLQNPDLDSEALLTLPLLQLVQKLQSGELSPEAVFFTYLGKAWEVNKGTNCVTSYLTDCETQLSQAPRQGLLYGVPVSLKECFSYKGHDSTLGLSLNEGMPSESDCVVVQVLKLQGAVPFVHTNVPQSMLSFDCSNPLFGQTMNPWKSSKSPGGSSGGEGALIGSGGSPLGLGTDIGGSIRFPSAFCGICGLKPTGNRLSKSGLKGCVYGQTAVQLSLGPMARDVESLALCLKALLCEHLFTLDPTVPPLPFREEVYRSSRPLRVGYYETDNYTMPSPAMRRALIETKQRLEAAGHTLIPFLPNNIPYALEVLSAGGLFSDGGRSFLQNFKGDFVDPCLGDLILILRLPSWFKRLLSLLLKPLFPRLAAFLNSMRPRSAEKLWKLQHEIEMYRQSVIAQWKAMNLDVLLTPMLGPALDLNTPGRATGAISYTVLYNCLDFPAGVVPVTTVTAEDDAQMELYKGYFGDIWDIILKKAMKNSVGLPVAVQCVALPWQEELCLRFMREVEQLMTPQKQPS
# Experimental: A. Transfection of Cells with Rat FAAH
# (§1) A 10-cm tissue culture dish with a confluent monolayer of SK-N-MC cells was split 2 days (d) prior to transfection. Using sterile technique, the media was removed and the cells were detached from the dish by the addition of trypsin. One fifth of the cells were then placed onto a new 10-cm dish. Cells were grown in a 37° C. incubator with 5% CO2 in Minimal Essential Media Eagle with 10% Fetal Bovine Serum. After 2 d, cells were approximately 80% confluent. These cells were removed from the dish with trypsin and pelleted in a clinical centrifuge. The pellet was re-suspended in 400 μL complete media and transferred to an electroporation cuvette with a 0.4 cm gap between the electrodes. Supercoiled rat FAAH cDNA (1 μg) was added to the cells and mixed. The voltage for the electroporation was set at 0.25 kV, and the capacitance was set at 960 μF. After electroporation, the cells were diluted into complete media (10 mL) and plated onto four 10-cm dishes. Because of the variability in the efficiency of electroporation, four different concentrations of cells were plated. The ratios used were 1:20, 1:10, and 1:5, with the remainder of the cells being added to the fourth dish. The cells were allowed to recover for 24 h before adding the selection media (complete media with 600 μg/mL G418). After 10 d, dishes were analyzed for surviving colonies of cells. Dishes with well-isolated colonies were used. Cells from individual colonies were isolated and tested.
# (§2) T84 frozen cell pellets or transfected SK-N-MC cells (contents of 1×15 cm culture dishes) were homogenized in 50 mL of FAAH assay buffer (125 mM Tris, 1 mM EDTA, 0.2% Glycerol, 0.02% Triton X-100, 0.4 mM Hepes, pH 9). The assay mixture consisted of 50 μL of the cell homogenate, 10 μL of the test compound, and 40 μL of anandamide [1-^3H-ethanolamine] (^3H-AEA, Perkin-Elmer, 10.3 Ci/mmol), which was added last, for a final tracer concentration of 80 nM. The reaction mixture was incubated at rt for 1 h. During the incubation, 96-well Multiscreen filter plates (catalog number MAFCNOB50; Millipore, Bedford, Mass., USA) were loaded with 25 μL of activated charcoal (Multiscreen column loader, catalog number MACL09625, Millipore) and washed once with 100 μL of MeOH. Also during the incubation, 96-well DYNEX MicroLite plates (catalog number NL510410) were loaded with 100 μL of MicroScint40 (catalog number 6013641, Packard Bioscience, Meriden, Conn., USA). After the 1 h incubation, 60 μL of the reaction mixture were transferred to the charcoal plates, which were then assembled on top of the DYNEX plates using Centrifuge Alignment Frames (catalog number MACF09604, Millipore). The unbound labeled ethanolamine was centrifuged through to the bottom plate (5 min at 2000 rpm), which was preloaded with the scintillant, as described above. The plates were sealed and left at rt for 1 h before counting on a Hewlett Packard TopCount.
# (§3) Results for compounds tested in these assays are summarized in Table 1, as an average of results obtained. Compounds were tested in the free base or trifluoroacetic acid salt form. Compounds tested in the trifluoroacetic acid salt form are indicated as such by a “*” designation after the example number. Where activity is shown as greater than (>) a particular value, the value is the solubility limit of the compound in the assay medium or the highest concentration tested in the assay.
# FAAH = target: T2, FAAH (Homo sapiens, UniProt O00519); assay: Assay Method 1: FAAH assay, 3H-anandamide hydrolysis in homogenate of cells transfected with human FAAH; assay type: biochemical; set-up: expressed in transfected cells; crude homogenate (T84 cell pellets named as alternative); settings: cell homogenate, 3H-AEA 80 nM, 1 h at rt, average of results
# T2 sequence (O00519 1-579): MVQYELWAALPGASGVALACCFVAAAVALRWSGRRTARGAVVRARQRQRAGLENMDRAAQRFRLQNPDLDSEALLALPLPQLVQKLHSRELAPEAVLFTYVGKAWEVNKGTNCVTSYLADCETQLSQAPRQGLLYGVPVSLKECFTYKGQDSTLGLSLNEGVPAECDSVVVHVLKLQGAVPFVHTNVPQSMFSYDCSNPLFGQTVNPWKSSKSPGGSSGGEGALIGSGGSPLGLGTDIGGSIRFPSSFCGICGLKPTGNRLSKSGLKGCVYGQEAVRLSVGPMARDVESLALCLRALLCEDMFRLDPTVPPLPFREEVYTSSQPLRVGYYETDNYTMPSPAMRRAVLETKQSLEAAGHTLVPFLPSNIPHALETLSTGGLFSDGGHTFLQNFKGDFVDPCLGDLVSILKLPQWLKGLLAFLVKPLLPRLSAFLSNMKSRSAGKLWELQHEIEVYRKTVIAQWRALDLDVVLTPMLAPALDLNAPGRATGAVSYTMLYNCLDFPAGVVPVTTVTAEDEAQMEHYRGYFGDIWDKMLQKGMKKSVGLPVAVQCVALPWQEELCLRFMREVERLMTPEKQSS
# Experimental: A. Transfection of Cells with Human FAAH
# as §1, with “Supercoiled human” for “Supercoiled rat”, “[…]” for “960 μF.”
# as §2, §3
SMILES,IC50 (rat FAAH) [nM],IC50 (FAAH) [nM]
"O=C(Nc1cccnc1)N1CC(COc2ccc3ccccc3n2)C1 [Example 9, 3-(Quinolin-2-yloxymethyl)-azetidine-1-carboxylic acid pyridin-3-ylamide]",1300,1300
"O=C(Nc1cccnc1)N1CC(COc2ccc3cccnc3c2)C1 [Example 14, 3-(Quinolin-7-yloxymethyl)-azetidine-1-carboxylic acid pyridin-3-ylamide]",> 10000,> 10000
"O=C(Nc1noc2ccccc12)N1CCC(Cc2ccc3c(c2)OC(F)(F)O3)C1 (centres unmarked) [Example 72, 3-(2,2-Difluoro-benzo[1,3]dioxol-5-ylmethyl)-pyrrolidine-1-carboxylic acid benzo[d]isoxazol-3-ylamide]",770,> 10000
"O=C(Nc1cccc2nccn12)N1CCC(Cc2cccc(Oc3ccc(F)cc3)c2)C1 (centres unmarked) [Example 76, 3-[3-(4-Fluoro-phenoxy)-benzyl]-pyrrolidine-1-carboxylic acid imidazo[1,2-a]pyridin-5-ylamide]",70,400
"O=C(Nc1cccnc1)N1CC(CCOc2cccc(Oc3ccc(Cl)cc3)c2)C1 [Example 44, 3-{2-[3-(4-Chloro-phenoxy)-phenoxy]-ethyl}-azetidine-1-carboxylic acid pyridin-3-ylamide]",27,13
"O=C(Nc1cnc2[nH]ccc2c1)N1CC(CCOc2cccc(Oc3ccc(Cl)cc3)c2)C1 [Example 40, 3-{2-[3-(4-Chloro-phenoxy)-phenoxy]-ethyl}-azetidine-1-carboxylic acid (1H-pyrrolo[2,3-b]pyridin-5-yl)-amide]",4,3
"O=C(Nc1cccnc1)N1CCC(CCOc2cccc(OC(F)(F)F)c2)C1 (centres unmarked) [Example 59, 3-[2-(3-Trifluoromethoxy-phenoxy)-ethyl]-pyrrolidine-1-carboxylic acid pyridin-3-ylamide]",> 10000,> 10000
"O=C(Nc1cccnc1)N1CC(COc2cccc(Oc3ccc(OC(F)(F)F)cc3)c2)C1 [Example 25, 3-[3-(4-Trifluoromethoxy-phenoxy)-phenoxymethyl]-azetidine-1-carboxylic acid pyridin-3-ylamide]",230,50
"O=C(Nc1cnccc1Cl)N1CC(CCOc2cccc(Oc3ccc(Cl)cn3)c2)C1 [Example 48, 3-{2-[3-(5-Chloro-pyridin-2-yloxy)-phenoxy]-ethyl}-azetidine-1-carboxylic acid (4-chloro-pyridin-3-yl)-amide]",5,1
"O=C(Nc1cnccc1Cl)N1CC[C@@H](COc2cccc(Oc3ccc(Cl)cc3)c2)C1 [Example 56, (3R)-3-[3-(4-Chloro-phenoxy)-phenoxymethyl]-pyrrolidine-1-carboxylic acid (4-chloro-pyridin-3-yl)-amide]",2,4
"O=C(Nc1cccnc1)N1CC(COc2cccc(Oc3ccccc3)c2)C1 [Example 17, 3-(3-Phenoxy-phenoxymethyl)-azetidine-1-carboxylic acid pyridin-3-ylamide]",340,170
"O=C(Nc1cccnc1)N1CCC(Cc2cccc(Oc3ccc(F)cc3)c2)C1 (centres unmarked) [Example 74, 3-[3-(4-Fluoro-phenoxy)-benzyl]-pyrrolidine-1-carboxylic acid pyridin-3-ylamide]",1100,1200
"O=C(Nc1cccnc1)N1CC(CCOc2cccc(C(F)(F)F)c2)C1 [Example 46, 3-[2-(3-Trifluoromethyl-phenoxy)-ethyl]-azetidine-1-carboxylic acid pyridin-3-ylamide]",615,1600
"O=C(Nc1cnccc1Cl)N1CCC(CCOc2ccc(OC(F)(F)F)cc2)C1 (centres unmarked) [Example 62, 3-[2-(4-Trifluoromethoxy-phenoxy)-ethyl]-pyrrolidine-1-carboxylic acid (4-chloro-pyridin-3-yl)-amide]",,1300
"O=C(Nc1cccnc1)N1CCC(CCOc2ccc(Cl)c(Cl)c2)C1 (centres unmarked) [Example 53, 3-[2-(3,4-Dichloro-phenoxy)-ethyl]-pyrrolidine-1-carboxylic acid pyridin-3-ylamide]",,6000
"O=C(Nc1cccnc1)N1CC(CCOc2ccc(OC(F)(F)F)cc2)C1 [Example 30, 3-[2-(4-Trifluoromethoxy-phenoxy)-ethyl]-azetidine-1-carboxylic acid pyridin-3-ylamide]",,> 10000
"O=C(Nc1cccc2nonc12)N1CCC(Cc2ccc3c(c2)OC(F)(F)O3)C1 (centres unmarked) [Example 73, N-2,1,3-Benzoxadiazol-4-yl-3-[(2,2-difluoro-1,3-benzodioxol-5-yl)methyl]pyrrolidine-1-carboxamide]",,> 10000
"O=C(Nc1cccnc1)N1CC(CCOCc2ccccc2)C1 [Example 69, 3-(2-Benzyloxy-ethyl)-azetidine-1-carboxylic acid pyridin-3-ylamide]",> 10000,
"O=C(Nc1cnccc1Cl)N1CC(CCOCc2ccccc2)C1 [Example 70, 3-(2-Benzyloxy-ethyl)-azetidine-1-carboxylic acid (4-chloropyridin-3-yl)-amide]",,936
